Data from US8536180B2, “Pyrimidine inhibitors of kinase activity” (AbbVie Inc., priority 2009, dated 2013).

biological target: T1, C-terminal GST-tagged, recombinant, human IGF-1R, amino acids 954-1367 (Homo sapiens, UniProt P08069); assay: IGF-1R homogenous time-resolved fluorescence (HTRF) in vitro kinase assay; type: biochemical; details: IGF-1R kinase, ATP 50 μM final, biotinylated peptide substrate 0.5 μM, 60 minutes at room temperature
T1 construct: human IGF-1R, amino acids 954-1367 expressed by baculovirus in Sf21 cells; GST (C); purchased Cell Signaling Technology; host or cells: baculovirus in Sf21 cells
T1 sequence (P08069 954-1367): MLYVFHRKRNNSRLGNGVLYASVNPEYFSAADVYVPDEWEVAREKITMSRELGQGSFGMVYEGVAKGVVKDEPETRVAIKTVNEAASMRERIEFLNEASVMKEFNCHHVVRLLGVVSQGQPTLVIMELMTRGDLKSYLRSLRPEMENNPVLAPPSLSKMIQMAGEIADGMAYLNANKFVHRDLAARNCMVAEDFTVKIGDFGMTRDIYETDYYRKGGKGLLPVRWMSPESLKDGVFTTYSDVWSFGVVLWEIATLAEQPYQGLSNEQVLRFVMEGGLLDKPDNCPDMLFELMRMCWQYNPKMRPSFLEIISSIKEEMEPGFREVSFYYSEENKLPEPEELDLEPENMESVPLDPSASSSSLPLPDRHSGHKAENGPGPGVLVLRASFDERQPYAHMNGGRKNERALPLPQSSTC
Method: IGF-1R kinase activity was assayed by a homogenous time-resolved fluorescence (HTRF) in vitro kinase assay (Mathis, G., HTRF(R) Technology. J Biomol Screen, 1999. 4(6): p. 309-314). Specifically, 10 μL C-terminal GST-tagged, recombinant, human IGF-1R, amino acids 954-1367 expressed by baculovirus in Sf21 cells (Cell Signaling Technology) was mixed with 10 μL inhibitor (various concentrations, 2% final DMSO) and 10 μL of ATP (50 μM final concentration) in reaction buffer (50 mM HEPES, pH 7.5, 10 mM MgCl2, 2 mM MnCl2, 0.1% BSA and 1 mM DTT, 40 μL final volume). The reaction was initiated by addition of 10 μL of biotinylated peptide substrate (Biotin-Ahx-[…], 0.5 μM final concentration) in a black 384-well plate (Packard). After 60 minutes incubation at room temperature, the reaction was quenched by addition of 60 μL stop/revelation buffer to give 30 mM EDTA, 1 μg/mL streptavidin-APC (Prozyme), 50 ng/mL anti-phosphotyrosine mAb PT66-K Europium Cryptate, 30 mM HEPES, pH 7.5, 120 mM KF, 0.005% Tween-20, 0.05% BSA). The quenched reaction was allowed to stand at room temperature for 1 hour and then read in a time-resolved fluorescence detector (Envision, Perkin Elmer) at 615 nm and 665 nm simultaneously. The ratio between the signal of 615 nm and 665 nm was used in the calculation of the IC50.

SMILES	IC50
O=c1[nH]cccc1Nc1nccc(-c2c(-c3ccc4[nH]c(Cc5ccccc5)nc4c3)nc3ccccn23)n1 [Example 29, 3-({4-[2-(2-benzyl-1H-benzimidazol-5-yl)imidazo[1,2-a]pyridin-3-yl]pyrimidin-2-yl}amino)pyridin-2(1H)-one]	101 to 500 nM
COc1cc(N2CCC(N(C)C)CC2)ccc1Nc1nccc(-c2c(-c3ccc4nc(Cc5ccccc5)[nH]c4c3)nc3sccn23)n1 [Example 30, 4-[6-(2-benzyl-1H-benzimidazol-6-yl)imidazo[2,1-b][1,3]thiazol-5-yl]-N-{4-[4-(dimethylamino)piperidin-1-yl]-2-methoxyphenyl}pyrimidin-2-amine]	< 10 nM
COc1cc(N(C)C)ccc1Nc1nccc(-c2c(-c3ccc4nc(Cc5ccccc5)[nH]c4c3)nc3sccn23)n1 [Example 31, N^1-{4-[6-(2-benzyl-1H-benzimidazol-6-yl)imidazo[2,1-b][1,3]thiazol-5-yl]pyrimidin-2-yl}-2-methoxy-N^4,N^4-dimethylbenzene-1,4-diamine]	10 to 50 nM
COc1cc(Cl)ccc1Nc1nccc(-c2c(-c3ccc4nc(Cc5ccccc5)[nH]c4c3)nc3ccccn23)n1 [Example 32, 4-[2-(2-benzyl-1H-benzimidazol-6-yl)imidazo[1,2-a]pyridin-3-yl]-N-(4-chloro-2-methoxyphenyl)pyrimidin-2-amine]	101 to 500 nM
COc1cc(N(C)C)ccc1Nc1nccc(-c2c(-c3ccc4nc(Cc5ccccc5Cl)[nH]c4c3)nc3sccn23)n1 [Example 33, N^1-(4-{6-[2-(2-chlorobenzyl)-1H-benzimidazol-6-yl]imidazo[2,1-b][1,3]thiazol-5-yl}pyrimidin-2-yl)-2-methoxy-N^4,N^4-dimethylbenzene-1,4-diamine]	10 to 50 nM
COc1ccccc1Cc1nc2ccc(-c3nc4sccn4c3-c3ccnc(Nc4ccc(N(C)C)cc4OC)n3)cc2[nH]1 [Example 34, 2-methoxy-N^1-(4-{6-[2-(2-methoxybenzyl)-1H-benzimidazol-6-yl]imidazo[2,1-b][1,3]thiazol-5-yl}pyrimidin-2-yl)-N^4,N^4-dimethylbenzene-1,4-diamine]	10 to 50 nM
OCCn1cc(Nc2nccc(-c3c(-c4ccc5[nH]c(-c6ccccc6)nc5c4)nc4ccccn34)n2)cn1 [Example 36, 2-[4-({4-[2(2-phenyl-1H-benzimidazol-5-yl)imidazo[1,2-a]pyridin-3-yl]pyrimidin-2-yl}amino)-1H-pyrazol-1-yl]ethanol]	10 to 50 nM
OCCn1cc(Nc2nccc(-c3c(-c4ccc5[nH]c(Cc6ccccc6)nc5c4)nc4ccccn34)n2)cn1 [Example 37, 2-[4-({4-[2(2-benzyl-1H-benzimidazol-5-yl)imidazo[1,2-a]pyridin-3-yl]pyrimidin-2-yl}amino)-1H-pyrazol-1-yl]ethanol]	10 to 50 nM
Fc1ccc(Nc2nccc(-c3c(-c4ccc5nc(-c6ccccc6)[nH]c5c4)nc4ccccn34)n2)cc1 [Example 38, N-(4-fluorophenyl)-4-[2-(2-phenyl-1H-benzimidazol-6-yl)imidazo[1,2-a]pyridin-3-yl]pyrimidin-2-amine]	101 to 500 nM
Fc1ccc(Nc2nccc(-c3c(-c4ccc5[nH]c(Cc6ccccc6)nc5c4)nc4ccccn34)n2)cc1 [Example 39, 4-[2-(2-benzyl-1H-benzimidazol-5-yl)imidazo[1,2-a]pyridin-3-yl]-N-(4-fluorophenyl)pyrimidin-2-amine]	51 to 100 nM
Fc1ccc(Nc2nccc(-c3c(-c4ccc5nc(-c6ccccc6)[nH]c5c4)nc4ccccn34)n2)c(F)c1 [Example 40, N-(2,4-difluorophenyl)-4-[2-(2-phenyl-1H-benzimidazol-6-yl)imidazo[1,2-a]pyridin-3-yl]pyrimidin-2-amine]	> 500 nM
Fc1ccc(Nc2nccc(-c3c(-c4ccc5[nH]c(Cc6ccccc6)nc5c4)nc4ccccn34)n2)c(F)c1 [Example 41, 4-[2-(2-benzyl-1H-benzimidazol-5-yl)imidazo[1,2-a]pyridin-3-yl]-N-(2,4-difluorophenyl)pyrimidin-2-amine]	101 to 500 nM
FC(F)(F)c1ccccc1Cc1nc2ccc(-c3nc4sccn4c3-c3ccnc(Nc4ccccc4CN4CCCC4)n3)cc2[nH]1 [Example 42, N-[2-(pyrrolidin-1-ylmethyl)phenyl]-4-(6-{2-[2-(trifluoromethyl)benzyl]-1H-benzimidazol-6-yl}imidazo[2,1-b][1,3]thiazol-5-yl)pyrimidin-2-amine]	> 500 nM
COc1ccc(S(C)(=O)=O)cc1Nc1nccc(-c2c(-c3ccc4nc(Cc5ccccc5)[nH]c4c3)nc3ccccn23)n1 [Example 43, 4-[2-(2-benzyl-1H-benzimidazol-6-yl)imidazo[1,2-a]pyridin-3-yl]-N-[2-methoxy-5-(methylsulfonyl)phenyl]pyrimidin-2-amine]	10 to 50 nM
Cn1cc(Nc2nccc(-c3c(-c4ccc5[nH]c(-c6ccccc6)nc5c4)nc4ccccn34)n2)cn1 [Example 44, N-(1-methyl-1H-pyrazol-4-yl)-4-[2-(2-phenyl-1H-benzimidazol-5-yl)imidazo[1,2-a]pyridin-3-yl]pyrimidin-2-amine]	> 500 nM
COc1ccc(C(F)(F)F)cc1Nc1nccc(-c2c(-c3ccc4nc(Cc5ccccc5)[nH]c4c3)nc3ccccn23)n1 [Example 45, 4-[2-(2-benzyl-1H-benzimidazol-6-yl)imidazo[1,2-a]pyridin-3-yl]-N-[2-methoxy-5-(trifluoromethyl)phenyl]pyrimidin-2-amine]	101 to 500 nM
CN(C)Cc1ccc(Nc2nccc(-c3c(-c4ccc5nc(Cc6ccccc6C(F)(F)F)[nH]c5c4)nc4sccn34)n2)cc1 [Example 46, N-{4-[(dimethylamino)methyl]phenyl}-4-(6-{2-[2-(trifluoromethyl)benzyl]-1H-benzimidazol-6-yl}imidazo[2,1-b][1,3]thiazol-5-yl)pyrimidin-2-amine]	10 to 50 nM
COc1cc(NCC(C)(C)O)ccc1Nc1nccc(-c2c(-c3ccc4[nH]c(Cc5ccccc5)nc4c3)nc3ccccn23)n1 [Example 47, 1-{[4-({4-[2-(2-benzyl-1H-benzimidazol-5-yl)imidazo[1,2-a]pyridin-3-yl]pyrimidin-2-yl}amino)-3-methoxyphenyl]amino}-2-methylpropan-2-ol]	10 to 50 nM
COc1cc(N(C)CCO)ccc1Nc1nccc(-c2c(-c3ccc4nc(Cc5ccccc5)[nH]c4c3)nc3ccccn23)n1 [Example 48, 2-[[4-({4-[2-(2-benzyl-1H-benzimidazol-6-yl)imidazo[1,2-a]pyridin-3-yl]pyrimidin-2-yl}amino)-3-methoxyphenyl](methyl)amino]ethanol]	10 to 50 nM
COc1cc(NCC(=O)O)ccc1Nc1nccc(-c2c(-c3ccc4[nH]c(Cc5ccccc5)nc4c3)nc3ccccn23)n1 [Example 49, N-[4-({4-[2-(2-benzyl-1H-benzimidazol-5-yl)imidazo[1,2-a]pyridin-3-yl]pyrimidin-2-yl}amino)-3-methoxyphenyl]glycine]	10 to 50 nM
COc1ccc(CN(C)CCO)cc1Nc1nccc(-c2c(-c3ccc4nc(Cc5ccccc5)[nH]c4c3)nc3ccccn23)n1 [Example 50, 2-[[3-({4-[2-(2-benzyl-1H-benzimidazol-6-yl)imidazo[1,2-a]pyridin-3-yl]pyrimidin-2-yl}amino)-4-methoxybenzyl](methyl)amino]ethanol]	10 to 50 nM
CN(C)CC(=O)Nc1cccc(Nc2nccc(-c3c(-c4ccc5nc(Cc6ccccc6)[nH]c5c4)nc4ccccn34)n2)c1 [Example 51, N^1-[3-({4-[2-(2-benzyl-1H-benzimidazol-6-yl)imidazo[1,2-a]pyridin-3-yl]pyrimidin-2-yl}amino)phenyl]-N^2,N^2-dimethylglycinamide]	< 10 nM
COc1cc(N2CCC(N(C)C)CC2)ccc1Nc1nccc(-c2c(-c3ccc4nc(Cc5ccccc5C(F)(F)F)[nH]c4c3)nc3sccn23)n1 [Example 52, N-{4-[4-(dimethylamino)piperidin-1-yl]-2-methoxyphenyl}-4-(6-{2-[2-(trifluoromethyl)benzyl]-1H-benzimidazol-6-yl}imidazo[2,1-b][1,3]thiazol-5-yl)pyrimidin-2-amine]	< 10 nM
COc1ccc(NC(=O)CN(C)C)cc1Nc1nccc(-c2c(-c3ccc4nc(Cc5ccccc5)[nH]c4c3)nc3ccccn23)n1 [Example 53, N^1-[3-({4-[2-(2-benzyl-1H-benzimidazol-6-yl)imidazo[1,2-a]pyridin-3-yl]pyrimidin-2-yl}amino)-4-methoxyphenyl]-N^2,N^2-dimethylglycinamide]	< 10 nM
COc1cc(N2CCC(N(C)C)CC2)ccc1Nc1nccc(-c2c(-c3ccc4nc(Cc5ccccc5Cl)[nH]c4c3)nc3sccn23)n1 [Example 54, 4-{6-[2-(2-chlorobenzyl)-1H-benzimidazol-6-yl]imidazo[2,1-b][1,3]thiazol-5-yl}-N-{4-[4-(dimethylamino)piperidin-1-yl]-2-methoxyphenyl}pyrimidin-2-amine]	< 10 nM
